We go through 16 compounds from patent US20240317735A1, “HYDROISOQUINOLINE OR HYDRONAPHTHYRIDINE COMPOUNDS FOR THE TREATMENT OF AUTOIMMUNE DISEASE” (Hoffmann-La Roche Inc., priority 2020, published 2024).

Data set [1] can be described thus: Human microsome stability assay. In kind it is in vitro ADME. Particulars: 1 μM test compound, 0.5 mg/mL liver microsomal protein, 37° C., pH 7.4. On the procedure:
The human microsomal stability assay is used for early assessment of metabolic stability of a test compound in human liver microsomes.
Human liver microsomes (Cat. NO.: 452117, Corning, USA; Cat. NO.: H2610, Xenotech, USA) were preincubated with test compound for 10 minutes at 37° C. in 100 mM potassium phosphate buffer, pH 7.4. The reactions were initiated by adding NADPH regenerating system. The final incubation mixtures contained 1 μM test compound, 0.5 mg/mL liver microsomal protein, 1 mM MgCl2, 1 mM NADP, 1 unit/mL isocitric dehydrogenase and 6 mM isocitric acid in 100 mM potassium phosphate buffer, pH 7.4. After incubation times of 0, 3, 6, 9, 15 and 30 minutes at 37° C., 300 μL of cold acetonitrile (including internal standard) was added to 100 μL incubation mixture to terminate the reaction. Following precipitation and centrifugation, the amount of compound remaining in the samples were determined by LC-MS/MS. Controls of no NADPH regenerating system at zero and 30 minutes were also prepared and analyzed.
Background: Microsomes from liver hold many membrane-bound enzymes, among them those of drug oxidation.

A further data set addresses T1, human TLR8 (Homo sapiens, UniProt Q9NR97).
T1 construct: host or cells: HEK293 (HEK-Blue hTLR8)
T1 sequence (Q9NR97 27-1041): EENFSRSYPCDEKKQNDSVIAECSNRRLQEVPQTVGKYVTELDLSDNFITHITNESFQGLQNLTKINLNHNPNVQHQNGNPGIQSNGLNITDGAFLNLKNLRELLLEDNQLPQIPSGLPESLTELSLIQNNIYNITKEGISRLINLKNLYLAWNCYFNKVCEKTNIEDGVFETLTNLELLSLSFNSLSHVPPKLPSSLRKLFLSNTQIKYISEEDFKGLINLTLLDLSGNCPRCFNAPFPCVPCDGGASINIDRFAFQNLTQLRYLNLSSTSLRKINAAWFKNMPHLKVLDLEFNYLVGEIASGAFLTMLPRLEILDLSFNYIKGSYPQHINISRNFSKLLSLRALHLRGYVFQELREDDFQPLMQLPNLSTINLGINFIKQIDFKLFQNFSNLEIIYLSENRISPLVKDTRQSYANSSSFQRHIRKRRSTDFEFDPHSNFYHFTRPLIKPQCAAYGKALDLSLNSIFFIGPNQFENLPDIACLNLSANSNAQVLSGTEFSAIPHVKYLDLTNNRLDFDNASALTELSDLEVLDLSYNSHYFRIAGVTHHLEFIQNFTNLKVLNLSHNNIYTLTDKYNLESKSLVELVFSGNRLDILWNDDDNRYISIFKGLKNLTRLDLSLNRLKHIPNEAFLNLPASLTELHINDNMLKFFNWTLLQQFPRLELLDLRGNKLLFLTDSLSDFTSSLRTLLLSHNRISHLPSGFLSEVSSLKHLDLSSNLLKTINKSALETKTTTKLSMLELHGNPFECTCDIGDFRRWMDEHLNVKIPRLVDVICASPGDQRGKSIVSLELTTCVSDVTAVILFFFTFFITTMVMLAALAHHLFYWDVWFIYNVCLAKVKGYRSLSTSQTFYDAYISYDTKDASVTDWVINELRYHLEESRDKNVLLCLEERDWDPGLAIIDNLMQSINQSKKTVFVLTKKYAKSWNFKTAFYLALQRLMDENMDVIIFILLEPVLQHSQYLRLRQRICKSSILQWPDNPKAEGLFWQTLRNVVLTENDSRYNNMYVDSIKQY
As to the kind of experiment: HEK293-Blue-hTLR-8 cells assay (SEAP reporter, R848 stimulation). In kind it is cell-based. As to conditions: HEK293-Blue-hTLR8 cells, R848, 20 hrs; read-out: HEK/hTLR8 IC50. On the procedure:
The following tests were carried out in order to determine the activity of the compounds of formula (I) and (Ia) in HEK293-Blue-hTLR-7/8/9 cells assay.
A stable HEK293-Blue-hTLR-8 cell line was purchased from InvivoGen (Cat. #: hkb-htlr8, San Diego, California, USA). These cells were originally designed for studying the stimulation of human TLR8 by monitoring the activation of NF-κB. A SEAP (secreted embryonic alkaline phosphatase) reporter gene was placed under the control of the IFN-β minimal promoter fused to five NF-κB and AP-1-binding sites. The SEAP was induced by activating NF-κB and AP-1 via stimulating HEK-Blue hTLR8 cells with TLR8 ligands. Therefore the reporter expression was declined by TLR8 antagonist under the stimulation of a ligand, such as R848, for incubation of 20 hrs. The cell culture supernatant SEAP reporter activity was determined using QUANTI-Blue™ kit (Cat. #: rep-qb1, Invivogen, San Diego, Ca, USA) at a wavelength of 640 nm, a detection medium that turns purple or blue in the presence of alkaline phosphatase.
HEK293-Blue-hTLR8 cells were incubated at a density of 250,000˜450,000 cells/mL in a volume of 170 μL in a 96-well plate in Dulbecco's Modified Eagle's medium (DMEM) containing 4.5 g/L glucose, […] penicillin, […], […] Normocin, 2 mM L-glutamine, 10% (v/v) heat-inactivated fetal bovine serum with addition of 20 μL test compound in a serial dilution in the presence of final DMSO at 1% and 10 μL of 60 uM R848 in above DMEM, perform incubation under 37° C. in a C02 incubator for 20 hrs. Then 20 μL of the supernatant from each well was incubated with 180 μL Quanti-blue substrate solution at 37° C. for 2 hrs and the absorbance was read at 620-655 nm using a spectrophotometer. The signaling pathway that TLR8 activation leads to downstream NF-κB activation has been widely accepted, and therefore similar reporter assay was modified for evaluating TLR8 antagonist.

As for `Cc1cc(N2Cc3cnc(OCCN4CCNCC4)cc3[C@@H](C)C2)c2cnn(C)c2n1` [Example 77, (4R)-2-(1,6-dimethylpyrazolo[3,4-b]pyridin-4-yl)-4-methyl-6-(2-piperazin-1-ylethoxy)-3,4-dihydro-1H-2,7-naphthyridine], in data set [1], the “Clearance of Human microsome” value is 6.2 mL/min/kg. Moreover, the IC50 at human TLR8 worked out at 16 nM.
As to `C[C@H]1CN(c2ccnc3c2cnn3C)Cc2ccc(O[C@@H]3C[C@H]4CNCCN4C3)cc21` [Example 42, (4R)-4-methyl-2-(1-methylpyrazolo[3,4-b]pyridin-4-yl)-6-[[(7R,8aS)-1,2,3,4,6,7,8,8a-octahydropyrrolo[1,2-a]pyrazin-7-yl]oxy]-3,4-dihydro-1H-isoquinoline], the “Clearance of Human microsome” value in data set [1] was 6.8 mL/min/kg. The IC50 on human TLR8 was 2 nM.
For `C[C@H]1CN(c2ccnc3c2cnn3C)Cc2ccc(OC[C@@H]3CNCCN3C=O)cc21` [Example 45, (2S)-2-[[(4R)-4-methyl-2-(1-methylpyrazolo[3,4-b]pyridin-4-yl)-3,4-dihydro-1H-isoquinolin-6-yl]oxymethyl]piperazine-1-carbaldehyde], in that order: 10.4 mL/min/kg and 10 nM.
Turning to `Cc1cc(N2Cc3ccc(OC4CCNCC4)nc3[C@@H](C)C2)c2cnn(C)c2n1` [Example 64, (8S)-6-(1,6-dimethylpyrazolo[3,4-b]pyridin-4-yl)-8-methyl-2-(4-piperidyloxy)-7,8-dihydro-5H-1,6-naphthyridine], the “Clearance of Human microsome” value in data set [1] is 7.0 mL/min/kg. On human TLR8, the IC50 is 4 nM.
For `Cc1cc(N2Cc3cnc(N4CC5(CNCCO5)C4)cc3[C@@H](C)C2)c2cnn(C)c2n1` [Example 79, 2-[(5R)-7-(1,6-dimethylpyrazolo[3,4-b]pyridin-4-yl)-5-methyl-6,8-dihydro-5H-2,7-naphthyridin-3-yl]-5-oxa-2,8-diazaspiro[3.5]nonane], in that order: 8.0 mL/min/kg and 23 nM.
For `C[C@H]1CN(c2ccnc3c2cnn3C)Cc2ccc(N3CCNCC3)nc21` [Example 62, (8S)-8-methyl-6-(1-methylpyrazolo[3,4-b]pyridin-4-yl)-2-piperazin-1-yl-7,8-dihydro-5H-1,6-naphthyridine], the “Clearance of Human microsome” value in data set [1] is 6.8 mL/min/kg. Further, the IC50 on human TLR8 worked out at 2 nM.
For `C[C@H]1CN(c2ccnc3c2cnn3C)Cc2ccc(N3CC4(CCNC4)CC3=O)cc21` (stereo partly drawn) [Example 52, 2-[(4R)-4-methyl-2-(1-methylpyrazolo[3,4-b]pyridin-4-yl)-3,4-dihydro-1H-isoquinolin-6-yl]-2,7-diazaspiro[4.4]nonan-3-one], in data set [1], the “Clearance of Human microsome” value came to 6.2 mL/min/kg. The IC50 at human TLR8 worked out at 3 nM.
The like results for `Cc1cc(N2Cc3ccc(N4CCNCC4)nc3[C@@H](C)C2)c2cnn(C)c2n1` [Example 66, (8S)-6-(1,6-dimethylpyrazolo[3,4-b]pyridin-4-yl)-8-methyl-2-piperazin-1-yl-7,8-dihydro-5H-1,6-naphthyridine] were, in that order, 9.8 mL/min/kg and 1 nM.
As to `C[C@H]1CN(c2ccnc3c2cnn3C)Cc2ccc(N3CCNCC3)cc21` [Example 1, (4R)-4-methyl-2-(1-methylpyrazolo[3,4-b]pyridin-4-yl)-6-piperazin-1-yl-3,4-dihydro-1H-isoquinoline], the “Clearance of Human microsome” value in data set [1] is given as 6.2 mL/min/kg. Also, at human TLR8, the IC50 was 2 nM.
With `C[C@H]1CN(c2ccnc3c2cnn3C)Cc2ccc(N3C[C@@]4(CCNC4)CC3=O)cc21` (single isomer, unassigned) [Example 53], the “Clearance of Human microsome” value in data set [1] worked out at 7.0 mL/min/kg. On human TLR8, the IC50 amounted to 6 nM.
For the compound `Cc1cc(N2Cc3ccc(N4CCC(O)(CN(C)C)CC4)cc3[C@@H](C)C2)c2cnn(C)c2n1` [Example 14, 4-[(dimethylamino)methyl]-1-[(4R)-2-(1,6-dimethylpyrazolo[3,4-b]pyridin-4-yl)-4-methyl-3,4-dihydro-1H-isoquinolin-6-yl]piperidin-4-ol], the “Clearance of Human microsome” value in data set [1] is on record as 6.2 mL/min/kg. Further, the IC50 at human TLR8 was 1 nM.
With `C[C@H]1CN(c2ccnc3c2cnn3C)Cc2ccc(N3CCN(Cc4cn(C)cn4)CC3)cc21` [Example 37, (4R)-4-methyl-6-[4-[(1-methylimidazol-4-yl)methyl]piperazin-1-yl]-2-(1-methylpyrazolo[3,4-b]pyridin-4-yl)-3,4-dihydro-1H-isoquinoline], the “Clearance of Human microsome” value in data set [1] is 8.2 mL/min/kg. Also, the IC50 at human TLR8 is 5 nM.
Take `C[C@H]1CN(c2ccnc3c2cnn3C)Cc2ccc(N3CCC(N4CC(N)C4)CC3)cc21` [Example 28, 1-[1-[(4R)-4-methyl-2-(1-methylpyrazolo[3,4-b]pyridin-4-yl)-3,4-dihydro-1H-isoquinolin-6-yl]-4-piperidyl]azetidin-3-amine]: the “Clearance of Human microsome” value in data set [1] was determined as 6.2 mL/min/kg. The IC50 at human TLR8 was below 0.3 nM.
As for `Cc1cc(N2Cc3cnc(O[C@@H]4C[C@H]5CNCCN5C4)cc3[C@@H](C)C2)c2cnn(C)c2n1` [Example 76, (4R)-2-(1,6-dimethylpyrazolo[3,4-b]pyridin-4-yl)-4-methyl-6-[[(7R,8aS)-1,2,3,4,6,7,8,8a-octahydropyrrolo[1,2-a]pyrazin-7-yl]oxy]-3,4-dihydro-1H-2,7-naphthyridine], in data set [1], the “Clearance of Human microsome” value was 6.2 mL/min/kg. Further, the IC50 at human TLR8 was 16 nM.
The like results for `C[C@H]1CN(c2ccnc3c2cnn3C)Cc2ccc(OC[C@H]3CNCCN3C)cc21` [Example 43, (4R)-4-methyl-2-(1-methylpyrazolo[3,4-b]pyridin-4-yl)-6-[[(2R)-1-methylpiperazin-2-yl]methoxy]-3,4-dihydro-1H-isoquinoline] were, in that order, 6.2 mL/min/kg and 2 nM.
Turning to `C[C@H]1CN(c2ccnc3c2cnn3C)Cc2ccc(N3CCN(C(=O)C4CCCN4)CC3)cc21` (stereo partly drawn) [Example 8, pyrrolidin-2-yl-[4-[(4R)-4-methyl-2-(1-methylpyrazolo[3,4-b]pyridin-4-yl)-3,4-dihydro-1H-isoquinolin-6-yl]piperazin-1-yl]methanone], the “Clearance of Human microsome” value in data set [1] is 7.0 mL/min/kg. Besides, the IC50 on human TLR8 was determined as 6 nM.
